Laboratory results from US9796720B2, “Imidazole-derived modulators of the glucocorticoid receptor” (BRISTOL-MYERS SQUIBB COMPANY, priority 2013, dated 2017).
Read-outs that look alike come from different tables or passages of the source.

Experiments:
[1] = target: human full-length glucocorticoid receptor (Homo sapiens (Human), UniProt P04150); test: Glucocorticoid Receptor Binding Assay (II), fluorescence polarization competitor assay; conditions: recombinant human full-length GR cell lysate, Fluormone GS1; read-out: GR (Ki, nM) (measured in GR binding Assay II)
Procedure: Glucocorticoid Receptor Binding Assay (II)
In order to measure the binding of compounds on the glucocorticoid receptor a commercially available kit was used (Glucocorticoid receptor competitor assay kit, PanVera Co., Madison, Wis., P2816). Briefly, a cell lysate containing recombinantly expressed human full-length glucocorticoid receptor was mixed with a fluorescently labeled glucocorticoid (1 nM Fluormone GS1) in the presence or absence of test compound. After one hour at room temperature, the fluorescence polarization (FP) of the samples were measured.

AP-1 = test: Cellular transrepressional assay (AP-1 luciferase reporter in A549 cells, PMA-activated); type: cell-based; conditions: for EC50: read-out: AP-1 (EC50, nM) (measured in cellular transrepression assay); for Emax: read-out: AP-1 Max % inhibition (measured in cellular transrepression assay)
Procedure: Cellular Transrepressional Assay
To measure the ability of test molecules to inhibit AP-1 induced transcriptional activity we utilized an A549 cell which was stably transfected with a plasmid containing 7×AP-1 DNA binding sites (pAP-1-Luc plasmid, Stratagene Co. La Jolla, Calif.) followed by the gene for luciferase. Cells were activated with 10 ng/ml of phorbol myristic acid (PMA) plus or minus test molecules for 7 hours. After 7 hours a luciferase reagent was added to measure luciferase enzymatic activity in the cell. After a 10 minute incubation of luciferase reagent with cells, luminescence was measured in a TOPCOUNT® luminescence counter. Repression of AP-1 activity was calculated as the percentage decrease in the signal induced by PMA alone. Test molecules were analyzed in the concentration range from 0.1 nM to 40 μM. EC50s were determined by using standard curve fitting methods such as Excel fit (Microsoft Co.). An EC50 is the test molecule concentration at which there is a 50% repression of the maximal inhibition of transcription, i.e., a 50% reduction of AP-1 activity.

[2] = A549 cells, 7xAP-1 luciferase, PMA 10 ng/ml, 7 hours

Chain of human full-length glucocorticoid receptor (P04150 whole entry): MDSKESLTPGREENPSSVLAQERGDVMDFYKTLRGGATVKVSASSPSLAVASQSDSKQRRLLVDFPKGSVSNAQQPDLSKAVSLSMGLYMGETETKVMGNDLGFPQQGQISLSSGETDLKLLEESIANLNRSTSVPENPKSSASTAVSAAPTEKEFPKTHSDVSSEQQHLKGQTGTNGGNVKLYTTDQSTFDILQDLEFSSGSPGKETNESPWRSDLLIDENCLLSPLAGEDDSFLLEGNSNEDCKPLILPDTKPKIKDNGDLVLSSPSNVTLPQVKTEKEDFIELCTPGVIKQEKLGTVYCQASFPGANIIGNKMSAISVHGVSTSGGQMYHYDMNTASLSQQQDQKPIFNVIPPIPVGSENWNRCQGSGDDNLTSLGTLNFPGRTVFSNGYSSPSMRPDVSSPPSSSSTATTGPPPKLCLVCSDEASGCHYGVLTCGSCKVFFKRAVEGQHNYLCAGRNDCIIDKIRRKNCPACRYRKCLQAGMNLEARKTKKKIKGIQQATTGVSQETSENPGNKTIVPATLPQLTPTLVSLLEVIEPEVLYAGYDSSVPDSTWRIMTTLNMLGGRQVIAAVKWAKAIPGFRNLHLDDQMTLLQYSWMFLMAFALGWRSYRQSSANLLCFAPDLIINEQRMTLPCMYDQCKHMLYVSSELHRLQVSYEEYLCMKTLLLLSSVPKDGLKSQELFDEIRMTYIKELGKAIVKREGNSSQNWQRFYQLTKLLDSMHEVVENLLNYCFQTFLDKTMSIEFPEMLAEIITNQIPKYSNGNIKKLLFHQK

| SMILES | Ki [1] | EC50 (AP-1; [2]) | Emax (AP-1; [2]) | EC50 (AP-1; 7 h) | Emax (AP-1; 7 h) |
| --- | --- | --- | --- | --- | --- |
| CC(C)(c1nc2nccnc2[nH]1)[C@@H]1c2ccc(-c3ccccc3)nc2Oc2c(F)cccc21 [Example 20, (S)-5-(2-(1H-Imidazo[4,5-b]pyrazin-2-yl)propan-2-yl)-9-fluoro-2-phenyl-5H-chromeno[2,3-b]pyridine] | 1.4 nM | 14.2 nM | 40% |  |  |
| CC(C)(c1nc2nccnc2[nH]1)[C@@H]1c2ccc(-c3ccc(C(=O)N4CCOCC4)cc3)nc2Oc2c(F)cccc21 [Example 1, (S)-(4-(5-(2-(1H-Imidazo[4,5-b]pyrazin-2-yl)propan-2-yl)-9-fluoro-5H-chromeno[2,3-b]pyridin-2-yl)phenyl)(morpholino)methanone] | 57 nM | 8.33 nM | 65.2% |  |  |
| CC(C)(c1nc2ccccc2[nH]1)[C@@H]1c2ccc(-c3ccc(C(=O)N4CCOCC4)cc3)nc2Oc2c(F)cccc21 [Example 14, (S)-(4-(5-(2-(1H-Benzo[d]imidazol-2-yl)propan-2-yl)-9-fluoro-5H-chromeno[2,3-b]pyridin-2-yl)phenyl)(morpholino)methanone] | 16.1 nM | 284 nM | 31.6% |  |  |
| CC(C)Oc1ccc(-c2ccc3c(n2)Oc2c(F)cccc2[C@@H]3C(C)(C)c2nc3nccnc3[nH]2)cn1 [Example 25, (S)-5-(2-(1H-Imidazo[4,5-b]pyrazin-2-yl)propan-2-yl)-9-fluoro-2-(6-isopropoxypyridin-3-yl)-5H-chromeno[2,3-b]pyridine] | 2.78 nM | 31.7 nM | 57.8% |  |  |
| CC(C)S(=O)(=O)c1ccc(-c2ccc3c(n2)Oc2c(F)cccc2[C@@H]3C(C)(C)c2nc3nccnc3[nH]2)cc1 [Example 7, (S)-5-(2-(1H-Imidazo[4,5-b]pyrazin-2-yl)propan-2-yl)-9-fluoro-2-(4-(isopropylsulfonyl)phenyl)-5H-chromeno[2,3-b]pyridine] | 1.4 nM |  |  | 12.2 nM | 54.2% |
| CC(C)(c1nc2nccnc2[nH]1)[C@@H]1c2ccc(-c3ccncc3)nc2Oc2c(F)cccc21 [Example 21, (S)-5-(2-(1H-Imidazo[4,5-b]pyrazin-2-yl)propan-2-yl)-9-fluoro-2-(pyridin-4-yl)-5H-chromeno[2,3-b]pyridine] | 3.92 nM | 21.1 nM | 45.9% |  |  |
| Cn1nnnc1-c1ccc(-c2ccc3c(n2)Oc2c(F)cccc2[C@@H]3C(C)(C)c2nc3nccnc3[nH]2)cc1 [Example 31, (S)-5-(2-(1H-Imidazo[4,5-b]pyrazin-2-yl)propan-2-yl)-9-fluoro-2-(4-(1-methyl-1H-tetrazol-5-yl)phenyl)-5H-chromeno[2,3-b]pyridine] | 1.94 nM | 15 nM | 48.6% |  |  |
| COC(=O)c1ccc(-c2ccc3c(n2)Oc2c(F)cccc2[C@@H]3C(C)(C)c2nc3nccnc3[nH]2)cn1 [Example 26, (S)-Methyl 5-(5-(2-(1H-imidazo[4,5-b]pyrazin-2-yl)propan-2-yl)-9-fluoro-5H-chromeno[2,3-b]pyridin-2-yl)picolinate] | 144 nM | 5000 nM | 14.3% |  |  |
